Laboratory results as given in patent US20150272959A1, “SMALL MOLECULES AS ANTI-HIV AGENTS THAT DISRUPT VIF SELF-ASSOCIATION AND METHODS OF USE THEREOF” (OYAGEN, INC., priority 2012, published 2015).
Where “and” joins values, the source holds several entries; their conditions need not be identical. Equal values may be shown once. Read-outs that look alike come from different tables or passages of the source.

Key:
[1] = tested on: pseudotyped HIV; type: cell-based; settings: for efficacy: all concentrations tested below 15 μM; for toxicity: concentrations higher than 15 μM
Excerpt: This figure is a visual representation of how the single cycle infectivity experiments were done. They are in 6 well format in order to obtain enough virus to do viral particle purifications for western blot detection of A3G in the viral particle. […] The wild type HIV proviral vector codes for all HIV genes except nef (replaced with EGFP) and env. […] Alternatively, in the absence of A3G, both wild type and ΔVif viruses should have high infectivity.
[…]. Viral load was then normalized with a p24 ELISA (Perkin Elmer).
The infections utilized TZM-bl reporter cells that contain stably integrated luciferase that is driven by the HIV-LTR promoter, therefore luciferase is expressed upon successful HIV infection. Triplicate infections in 96-well plates at 10,000 cells/well with 500 pg p24/well proceeded for 48 hours before the addition of SteadyGlo™ Reagent (Promega) to each well for 30 minutes. Luminescence was measured as a quantitative metric for changes in infectivity with each compound as compared to controls, in which relative luminescence units (RLU) with no chemistry are set to 100%.
This figure is intended to highlight where in the experimental method negative results occurred. Although all compounds to this point in screening have shown little to no toxicity in the Primary and Secondary Screens, when cells are challenged with viral production they are more sensitive to toxicity from chemistries since cells have to combat viral proteins overtaking of cellular pathways and any adverse effects from the chemistries. […] If the producer cells are healthy and make enough virus for infectivity testing there are three possible outcomes and two are undesirable for any chemistry to go forward into probe development. […] This is best represented as a differential between infectivity in the presence of Vif and A3G vs the absence of Vif and A3G.
Each compound was tested at multiple concentrations in separate infectivity assays. The concentrations are listed on the top, followed by the infectivity in relation to the no chemistry control for both + and −Vif and A3G conditions, and the large number on the bottom is the differential between infectivity of +Vif virus and with A3G cotransfected compared to −Vif virus without A3G (purple numbers are for good values and blue numbers are for weak values). […] For compound 9 although the drop in infectivity compared to the no chemistries controls are not as low as for compounds 21 and 24 for +Vif and A3G infectivities, there is an increase in the −Vif and A3G infectivities compared to control making the differential between the +/−Vif and A3G virus lower than 24 and 21 at 0.33 and 0.44 in Dry Powder Infectivities B&C. Note that normalization for the viral load with p24 only accounts for total viral particles in the media, but is unable to discriminate between mature and immature virions. If a chemistry has an effect on % of mature virions compared to the no chemistry control there could be an impact on viral infectivity values compared to control. Therefore, although it is crucial to see lower infectivity than the no chemistry control the more critical number is the differential between +/−Vif and A3G, because both those virial preps contain the chemistry and would have similar effects on the viral populations going into the infectivity assay. On the other hand, compound 21 has +Vif and A3G infectivity at 56% at 15 μM but the −Vif and A3G infectivity is only at 63% making the differential only 0.88.

[2] = tested on: A3G in the viral particle; assay: A3G in the viral particle, western blot A3G:p24 ratio (FIG. 18); type: cell-based, HIV; settings: for increase of A3G:p24 ratio over the negative control: parallel to Dry Powder Infectivities B & C, 30 ng p24
Description: Parallel to Dry Powder Infectivities B & C, viral particles (30 ng p24) were pelleted through a 20% sucrose cushion, resolved by SDS-PAGE and western blotted for VS-tagged A3G and p24. The yield of A3G relative to p24 (as a virus loading control) was quantified by scanning densitometry to validate the antiviral mechanism. The first two lanes are the −Vif virus with A3G (positive control) and the +Vif virus with A3G (negative control). The A3G:p24 Ratio for the negative control was set to 1 (Ratios listed under the westerns). Chemistry 24 had 5 and 15 fold increases over the negative control. On the other hand, chemistry 9 had increases of 55 and 76-fold over the control, both higher than the positive control at 48-fold above the negative control. However, the positive control has lower overall infectivity and differentials than 9.

[3] = tested on: CEMSS (-A3G) cells; type: cell-based
Excerpt: (§1) All the screens to this point utilized 293T cells and the Brd. […] The rationale is to set a CC50 standard in T cells to measure against for medicinal chemistry derived compounds created from these scaffolds going forward. CEMSS (−A3G) and A3.01 (+A3G) were selected, because they are both CEM derived T cell lines that can be used to compare in live virus spreading infections for A3G-dependency.

[4] = tested on: A3.01 (+A3G) cells; type: cell-based
Excerpt: as §1

[5] = tested on: Vif-dependent A3G degradation; assay: Vif-dependent A3G-mCherry degradation assay in 293T cells; type: cell-based; settings: single dose 8 μM
Description: A3G-mCherry is stably expressed in 293T cells under puromycin selection. 50 ng of Vif was transiently transfected into the cells in 384-well format with Turbofect. 4 hours after transfection the chemistries were added to cells in a range from (0.5-16 μM). 24 hours after chemistries were added the mCherry signal was read on a Biotek Synergy 4 plate reader. The signal from cells plated but not transfected with Vif was averaged and set at 100% (left image), and cells transfected with Vif and treated with DMSO only were averaged and set at 0% (right image). A chemistry that inhibits Vif's ability to chaperone A3G to the proteasomal degradation pathway would result in an increased mCherry signal compared to the DMSO only control, and any signal that is much higher than the no Vif positive control is likely to be due to autofluorescence from the chemistry itself.
To simplify the numbering the compounds were numbered from 1 to 32 in the same order as plated in the original vials and listed on the original Dry Powder list sent with the vials by the Broad. […] The first compound is 02-16, which is the lead from the previous OyaGen screen mentioned above with strong A3G dependency in live virus tests and the last data set are the DMSO controls that were averaged out to set the 0% mark. […]

[6] = 15 μM, relative to no chemistry control

Row | Structure (SMILES) | +/-Vif and A3G differential (in words) [1] | -Vif and A3G infectivities compared to control [1] | antiviral activity [1] | differential between +/-Vif and A3G virus infectivity ([1]; Dry Powder Infectivity B) | differential between +/-Vif and A3G virus infectivity ([1]; Dry Powder Infectivity C) | efficacy [1] | toxicity [1] | A3G in the viral particles (in words) [2] | increase of A3G:p24 ratio over the negative control [2] | CC50 [3] | CC50 [4] | DMSO stock test [5] | differential between +/-Vif and A3G infectivity ([1]; 15 μM) | +Vif and A3G infectivity [1, 6] | -Vif and A3G infectivity [1, 6] | toxic effects ([1]; above 30 μM) | differential between +/-Vif and A3G infectivity ([1]; above 30 μM, Dry Powder infectivity A) | differential between +/-Vif and A3G infectivity ([1]; above 30 μM, Dry Powder infectivity C)
1 | Cc1nnc2ccc(-c3cccc(NS(=O)(=O)c4cc(F)ccc4F)c3)nn12 [Compound 9] | differential between +/−Vif and A3G infectivities | increase | antiviral activity | 0.33 | 0.44 | displayed efficacy | slight toxicity | increase in A3G | 55 fold and 76 fold | > 25 µM | > 25 µM | low | – | – | – | – | – | –
2 | O=C(NC1(C(F)(F)F)Oc2ccc(Cl)cc2O1)N1CCC2(CC1)OCCO2 (stereo not shown) [Compound 21] | differential between +/−Vif and A3G infectivities | – | antiviral activity | – | – | – | – | increase in A3G | 4 fold and 5 fold | > 25 µM | > 25 µM | – | 0.88 | 56% | 63% | no toxic effects | 0.65 | 0.57
3 | FC(F)(F)c1nnc2c3ccccc3c(Cl)nn12 [Compound 24] | differential between +/−Vif and A3G infectivities | – | antiviral activity | – | – | displayed efficacy | slight toxicity | increase in A3G | – | 9.7 µM | 4.9 µM | – | – | – | – | – | – | –
